US20240083853A1, “HSD17B13 INHIBITORS AND USES THEREOF” (FL2022-001, Inc., priority 2020, published 2024)
Counter-ions that a name gives are not always drawn.

Target: T1, Recombinant human HSD17B13 enzyme (Homo sapiens, UniProt Q7Z5P4)
T1 sequence (Q7Z5P4 20-300): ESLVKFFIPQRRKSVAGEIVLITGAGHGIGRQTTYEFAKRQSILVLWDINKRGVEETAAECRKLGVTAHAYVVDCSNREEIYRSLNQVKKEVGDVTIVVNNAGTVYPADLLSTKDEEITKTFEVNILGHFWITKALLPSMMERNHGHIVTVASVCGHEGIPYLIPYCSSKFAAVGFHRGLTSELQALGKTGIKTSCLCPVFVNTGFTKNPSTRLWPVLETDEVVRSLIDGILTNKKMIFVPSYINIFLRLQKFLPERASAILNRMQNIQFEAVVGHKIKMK
Assay: HSD17b13 NAD(P)H-Glo biochemical assay
Details: 50 uM estradiol, 1 mM NAD+, NAD(P)H-Glo luminescence; read-out: HSD17β13 IC50
Outline: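 Recombinant human HSD17B13 in 20 mM Tris pH7.4 with 0.002% Tween-20 and 0.02% BSA was preincubated with inhibitor for 20 minutes at RT. The reaction ran 3 hours at 37° C with 50 uM estradiol and 1 mM NAD+ (final). NADH formed was detected by NAD(P)H-Glo luminescence after 1 hour at RT.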

SMILES	IC50
CS(=O)(=O)N1CC2(CCN(c3ccc(-n4ncc5cc(F)c(O)c(F)c54)cc3)CC2)C1 [Compound 20.21, 5,7-Difluoro-1-(4-(2-(methylsulfonyl)-2,7-diazaspiro[3.5]nonan-7-yl)phenyl)-1H-indazol-6-ol]	100 to 1000 nM
CC1CN(c2ccc(-n3ncc4cc(F)c(O)c(F)c43)cc2)CC(C)S1(=O)=O (centres unmarked) [Compound 32, 4-(4-(5,7-Difluoro-6-hydroxy-1H-indazol-1-yl)phenyl)-2,6-dimethylthiomorpholine 1,1-dioxide]	100 to 1000 nM
Oc1ccc(-c2ccc(-n3ncc4c(F)cc(O)cc43)cc2)cc1 [Compound 2.7, 4-Fluoro-1-(4′-hydroxy-[1,1′-biphenyl]-4-yl)-1H-indazol-6-ol]	100 to 1000 nM
Oc1cccc(-c2ccc(-n3ncc4cc(F)c(O)cc43)cc2)c1 [Compound 2, 5-Fluoro-1-(3′-hydroxy-[1,1′-biphenyl]-4-yl)-1H-indazol-6-ol]	100 to 1000 nM
Cc1ccc(-c2ccc(-n3ncc4cc(F)c(O)cc43)cc2)cc1 [Compound 13.11, 5-Fluoro-1-(4′-methyl-[1,1′-biphenyl]-4-yl)-1H-indazol-6-ol]	100 to 1000 nM
Cc1cc(-c2ccc(O)cc2)ccc1-n1ncc2cc(F)c(O)cc21 [Compound 15.1, 5-Fluoro-1-(4′-hydroxy-3-methyl-[1,1′-biphenyl]-4-yl)-1H-indazol-6-ol]	100 to 1000 nM
Oc1c(F)cc2cnn(-c3ccc(-c4ccc(Cl)cc4)cc3)c2c1F [Compound 13, 1-(4′-Chloro-[1,1′-biphenyl]-4-yl)-5,7-difluoro-1H-indazol-6-ol]	< 100 nM
Oc1c(F)cc2nnn(-c3ccc(N4CC5(CCOCC5)C4)cc3)c2c1F [Compound 20.10, 1-(4-(7-Oxa-2-azaspiro[3.5]nonan-2-yl)phenyl)-5,7-difluoro-1H-benzo[d][1,2,3]triazol-6-ol]	< 100 nM
CC1(C)CCC(c2ccc(-n3ncc4cc(F)c(O)c(F)c43)cc2)CC1 [Compound 27, 1-(4-(4,4-Dimethylcyclohexyl)phenyl)-5,7-difluoro-1H-indazol-6-ol]	< 100 nM
CS(=O)(=O)N1CCN(c2ccc(-n3ncc4c(C(F)(F)F)c(F)c(O)cc43)cc2)CC1 [Compound 4.1, 5-Fluoro-1-(4-(4-(methylsulfonyl)piperazin-1-yl)phenyl)-4-(trifluoromethyl)-1H-indazol-6-ol]	100 to 1000 nM
CS(=O)(=O)N1CCC2(CC1)CN(c1ccc(-n3ncc4cc(F)c(O)c(F)c43)cc1)C2 [Compound 20.22, 5,7-Difluoro-1-(4-(7-(methylsulfonyl)-2,7-diazaspiro[3.5]nonan-2-yl)phenyl)-1H-indazol-6-ol]	100 to 1000 nM
CS(=O)(=O)N1CCC(c2ccc(-n3cnc4cc(F)c(O)c(F)c43)cc2)CC1 [Compound 28, 5,7-Difluoro-1-(4-(1-(methylsulfonyl)piperidin-4-yl)phenyl)-1H-benzo[d]imidazol-6-ol]	< 100 nM
CS(=O)(=O)N1CC(c2ccc(-n3ncc4cc(F)c(O)c(F)c43)cc2)C1 [Compound 30, 5,7-Difluoro-1-(4-(1-(methylsulfonyl)azetidin-3-yl)phenyl)-1H-indazol-6-ol]	100 to 1000 nM
O=C(O)c1ccc(-c2ccc(-n3ncc4cc(F)c(O)cc43)cc2)cc1 [Compound 13.30, 4′-(5-Fluoro-6-hydroxy-1H-indazol-1-yl)-[1,1′-biphenyl]-4-carboxylic acid]	1000 to 30000 nM
Oc1cc2c(cnn2-c2ccc(-c3ccc(F)cc3)cc2)cc1F [Compound 13.5, 5-Fluoro-1-(4′-fluoro-[1,1′-biphenyl]-4-yl)-1H-indazol-6-ol]	100 to 1000 nM
CC1(C)CCN(c2ccc(-n3c(=O)[nH]c4cc(F)c(O)c(F)c43)cc2)CC1 [Compound 11, 1-(4-(4,4-Dimethylpiperidin-1-yl)phenyl)-5,7-difluoro-6-hydroxy-1H-benzo[d]imidazol-2(3H)-one]	< 100 nM
CC(=O)Nc1cccc(-c2ccc(-n3ncc4cc(F)c(O)cc43)cc2)c1 [Compound 13.31, N-(4′-(5-Fluoro-6-hydroxy-1H-indazol-1-yl)-[1,1′-biphenyl]-3-yl)acetamide]	1000 to 30000 nM
Oc1c(F)cc2cnn(-c3cnc(-c4ccc(Cl)cc4)cn3)c2c1F [Compound 18, 1-(5-(4-Chlorophenyl)pyrazin-2-yl)-5,7-difluoro-1H-indazol-6-ol]	< 100 nM
CS(=O)(=O)c1ccc(-c2ccc(-n3ncc4cc(F)c(O)cc43)cc2)cc1 [Compound 13.26, 5-Fluoro-1-(4′-(methylsulfonyl)-[1,1′-biphenyl]-4-yl)-1H-indazol-6-ol]	100 to 1000 nM

The next lines start with the values.

IC50	SMILES
100 to 1000 nM	CC1(C)CCN(c2ccc(-n3nnc4cc(F)c(O)c(F)c43)nn2)CC1 [Compound 26.23, 1-(6-(4,4-Dimethylpiperidin-1-yl)pyridazin-3-yl)-5,7-difluoro-1H-benzo[d][1,2,3]triazol-6-ol]
< 100 nM	Cn1c(=O)n(-c2ccc(N3CCC(C)(C)CC3)cc2)c2c(F)c(O)c(F)cc21 [Compound 21.6, 3-(4-(4,4-Dimethylpiperidin-1-yl)phenyl)-4,6-difluoro-5-hydroxy-1-methyl-1H-benzo[d]imidazol-2(3H)-one]
< 100 nM	CC1(C)CCN(c2ccc(-n3ncc4cc(F)c(O)c(F)c43)nc2)CC1 [Compound 26.3, 1-(5-(4,4-Dimethylpiperidin-1-yl)pyridin-2-yl)-5,7-difluoro-1H-indazol-6-ol]
1000 to 30000 nM	CS(=O)(=O)N1CCN(c2ccc(-n3ncc4cc(F)c(O)cc43)cc2)CC1 [Compound 21.2, 5-Fluoro-1-(4-(4-(methylsulfonyl)piperazin-1-yl)phenyl)-1H-indazol-6-ol]
100 to 1000 nM	Oc1c(F)cc2nnn(-c3ccc(N4CCO[C@@H](c5ccccc5)C4)cc3)c2c1F [Compound 26.26, (S)-5,7-Difluoro-1-(4-(2-phenylmorpholino)phenyl)-1H-benzo[d][1,2,3]triazol-6-ol]
< 100 nM	COC1CCN(c2ccc(-n3ncc4cc(F)c(O)c(F)c43)cc2)CC1 [Compound 22.4, 5,7-Difluoro-1-(4-(4-methoxypiperidin-1-yl)phenyl)-1H-indazol-6-ol]
< 100 nM	CC1CCN(c2ccc(-n3ncc4cc(F)c(O)c(F)c43)cc2)CC1 [Compound 23.18, 5,7-Difluoro-1-(4-(4-methylpiperidin-1-yl)phenyl)-1H-indazol-6-ol]
100 to 1000 nM	Oc1c(F)cc2nnn(-c3cnc(N4CC5(CCOCC5)C4)cn3)c2c1F [Compound 26.18, 1-(5-(7-Oxa-2-azaspiro[3.5]nonan-2-yl)pyrazin-2-yl)-5,7-difluoro-1H-benzo[d][1,2,3]triazol-6-ol]
1000 to 30000 nM	CC1(C)CCN(c2ccc(-n3ncc4cc(F)c(O)nc43)cc2)CC1 [Compound 25.2, 1-(4-(4,4-Dimethylpiperidin-1-yl)phenyl)-5-fluoro-1H-pyrazolo[3,4-b]pyridin-6-ol]
1000 to 30000 nM	Oc1c(F)cc2nnn(-c3ccc(N4CC5(CCOCC5)C4)nn3)c2c1F [Compound 26.24, 1-(6-(7-Oxa-2-azaspiro[3.5]nonan-2-yl)pyridazin-3-yl)-5,7-difluoro-1H-benzo[d][1,2,3]triazol-6-ol]
100 to 1000 nM	CC1(C)CCN(c2ccc(-n3nnc4c(F)c(F)c(O)cc43)cc2)CC1 [Compound 40.2, 1-(4-(4,4-Dimethylpiperidin-1-yl)phenyl)-4,5-difluoro-1H-benzo[d][1,2,3]triazol-6-ol]
100 to 1000 nM	Oc1c(F)cc2nnn(-c3ccc(N4CC5(CCOCC5)C4)cn3)c2c1F [Compound 26.15, 1-(5-(7-Oxa-2-azaspiro[3.5]nonan-2-yl)pyridin-2-yl)-5,7-difluoro-1H-benzo[d][1,2,3]triazol-6-ol]
< 100 nM	CCC1(CC)CCN(c2ccc(-n3ncc4cc(F)c(O)c(F)c43)cc2)CC1 [Compound 24.7, 1-(4-(4,4-Diethylpiperidin-1-yl)phenyl)-5,7-difluoro-1H-indazol-6-ol]
1000 to 30000 nM	CS(=O)(=O)N1CCN(c2ccc(-n3ncc4cc(F)c(O)c(F)c43)nc2)CC1 [Compound 26.4, 5,7-Difluoro-1-(5-(4-(methylsulfonyl)piperazin-1-yl)pyridin-2-yl)-1H-indazol-6-ol]
100 to 1000 nM	CS(=O)(=O)N1CCN(c2ccc(-n3ncc4cc(F)c(O)c(F)c43)cn2)CC1 [Compound 26.2, 5,7-Difluoro-1-(6-(4-(methylsulfonyl)piperazin-1-yl)pyridin-3-yl)-1H-indazol-6-ol]

Same assay, conditions: 3 h, read-out: HSD17β13 % at 10 uM

SMILES	inhibition at 10 µM
CC1(C)CCN(c2ccc(N3C(=O)C(O)c4cc(F)c(O)c(F)c43)cc2)CC1 (centres unmarked) [Compound 35, 1-(4-(4,4-Dimethylpiperidin-1-yl)phenyl)-5,7-difluoro-3,6-dihydroxyindolin-2-one hydrochloride]	< 20%

Same assay, conditions: 3 h; at 10 uM compound; read-out: HSD17β13 % at 10 uM

inhibition at 10 µM	SMILES
35%	Cc1c(O)c(F)cc2cnn(-c3ccc(N4CCN(S(C)(=O)=O)CC4)cc3)c12 [Compound 24.12, 5-Fluoro-7-methyl-1-(4-(4-(methylsulfonyl)piperazin-1-yl)phenyl)-1H-indazol-6-ol]
45%	CS(=O)(=O)N1CCN(c2cnc(-n3nnc4cc(F)c(O)c(F)c43)nc2)CC1 [Compound 26.22, 5,7-Difluoro-1-(5-(4-(methylsulfonyl)piperazin-1-yl)pyrimidin-2-yl)-1H-benzo[d][1,2,3]triazol-6-ol]

Same assay, conditions: 3 h; at 100 uM compound; read-out: HSD17β13 % at 100 uM

inhibition at 100 µM	SMILES
40%	CC(=O)Nc1ccc(-c2ccc(-n3ncc4cc(F)c(O)cc43)cc2)cc1 [Compound 13.32, N-(4′-(5-Fluoro-6-hydroxy-1H-indazol-1-yl)-[1,1′-biphenyl]-4-yl)acetamide]
